Reference: PubChem BioAssay AID1259407 (Chemical Carcinogenesis Research Information System (CCRIS), 2018)
Calls of active or inactive are those of the source. How the calls were made is not given here.

Tested on: CCRIS mutagenicity, Ames/micronucleus/aberration tests
Assay: CCRIS mutagenicity studies
[1] = Test System: AMES SALMONELLA TYPHIMURIUM, Strain/Indicator: TA98, Metabolic Activation: HAMSTER, LIVER, S-9, AROCLOR 1254 (10%), Method: PREINCUBATION
[2] = Test System: AMES SALMONELLA TYPHIMURIUM, Strain/Indicator: TA98, Metabolic Activation: NONE, Method: PREINCUBATION
[3] = Test System: AMES SALMONELLA TYPHIMURIUM, Strain/Indicator: TA98, Metabolic Activation: RAT, LIVER, S-9, AROCLOR 1254 (10%), Method: PREINCUBATION
[4] = Test System: AMES SALMONELLA TYPHIMURIUM, Strain/Indicator: TA100, Metabolic Activation: HAMSTER, LIVER, S-9, AROCLOR 1254 (10%), Method: PREINCUBATION
[5] = Test System: AMES SALMONELLA TYPHIMURIUM, Strain/Indicator: TA100, Metabolic Activation: NONE, Method: PREINCUBATION
[6] = Test System: AMES SALMONELLA TYPHIMURIUM, Strain/Indicator: TA100, Metabolic Activation: RAT, LIVER, S-9, AROCLOR 1254 (10%), Method: PREINCUBATION
[7] = Test System: AMES SALMONELLA TYPHIMURIUM, Strain/Indicator: TA1535, Metabolic Activation: HAMSTER, LIVER, S-9, AROCLOR 1254 (10%), Method: PREINCUBATION
[8] = Test System: AMES SALMONELLA TYPHIMURIUM, Strain/Indicator: TA1535, Metabolic Activation: NONE, Method: PREINCUBATION
[9] = Test System: AMES SALMONELLA TYPHIMURIUM, Strain/Indicator: TA1535, Metabolic Activation: RAT, LIVER, S-9, AROCLOR 1254 (10%), Method: PREINCUBATION
[10] = Test System: AMES SALMONELLA TYPHIMURIUM, Strain/Indicator: TA1537, Metabolic Activation: HAMSTER, LIVER, S-9, AROCLOR 1254 (10%), Method: PREINCUBATION
[11] = Test System: AMES SALMONELLA TYPHIMURIUM, Strain/Indicator: TA1537, Metabolic Activation: NONE, Method: PREINCUBATION
[12] = Test System: AMES SALMONELLA TYPHIMURIUM, Strain/Indicator: TA1537, Metabolic Activation: RAT, LIVER, S-9, AROCLOR 1254 (10%), Method: PREINCUBATION
[13] = Test System: AMES SALMONELLA TYPHIMURIUM, Strain/Indicator: TA100, Metabolic Activation: RAT, LIVER, S-9, AROCLOR 1254, Method: STANDARD PLATE
[14] = Test System: AMES SALMONELLA TYPHIMURIUM, Strain/Indicator: TA98, Metabolic Activation: NONE, Method: STANDARD PLATE
[15] = Test System: AMES SALMONELLA TYPHIMURIUM, Strain/Indicator: TA100, Metabolic Activation: NONE, Method: STANDARD PLATE
[16] = Test System: AMES SALMONELLA TYPHIMURIUM, Strain/Indicator: TA98, Metabolic Activation: RAT, LIVER, S-9, AROCLOR 1254, Method: STANDARD PLATE
[17] = Test System: AMES SALMONELLA TYPHIMURIUM, Strain/Indicator: TA97, Metabolic Activation: HAMSTER, LIVER, S-9, AROCLOR 1254 (10%), Method: PREINCUBATION
[18] = Test System: AMES SALMONELLA TYPHIMURIUM, Strain/Indicator: TA97, Metabolic Activation: NONE, Method: PREINCUBATION
[19] = Test System: AMES SALMONELLA TYPHIMURIUM, Strain/Indicator: TA97, Metabolic Activation: RAT, LIVER, S-9, AROCLOR 1254 (10%), Method: PREINCUBATION

## Nc1nc(N)c2nc(-c3ccccc3)c(N)nc2n1
[1]
  mutagenic call: inactive; negative
[2]
  mutagenic call: inactive; negative
[3]
  mutagenic call: inactive; negative
[4]
  mutagenic call: inactive; negative
[5]
  mutagenic call: inactive; negative
[6]
  mutagenic call: inactive; negative
[7]
  mutagenic call: inactive; negative
[8]
  mutagenic call: inactive; negative
[9]
  mutagenic call: inactive; negative
[10]
  mutagenic call: inactive; negative
[11]
  mutagenic call: inactive; negative
[12]
  mutagenic call: inactive; negative

## Cc1c2cc(CO)ccc2nc2c3c(ccc12)[C@H](O)[C@@H](O)C=C3
[13]
  mutagenic call: active; positive

## CO[C@@H]1C[C@](C)(O)Cc2cc3c(c(O)c21)C(=O)c1c(O)cc2c(c1C3=O)O[C@@H]1O[C@@]2(C)[C@H](O)[C@@H](N(C)C)[C@@H]1O
[2]
  mutagenic call: inactive; negative
Test System: AMES SALMONELLA TYPHIMURIUM, Strain/Indicator: TA98, Metabolic Activation: RAT LIVER S-9, Method: PREINCUBATION
  mutagenic call: active; positive
[5]
  mutagenic call: inactive; negative
Test System: AMES SALMONELLA TYPHIMURIUM, Strain/Indicator: TA100, Metabolic Activation: RAT LIVER S-9, Method: PREINCUBATION
  mutagenic call: active; positive
[8]
  mutagenic call: inactive; negative
Test System: AMES SALMONELLA TYPHIMURIUM, Strain/Indicator: TA1535, Metabolic Activation: RAT LIVER S-9, Method: PREINCUBATION
  mutagenic call: inactive; negative
[11]
  mutagenic call: inactive; negative
Test System: AMES SALMONELLA TYPHIMURIUM, Strain/Indicator: TA1537, Metabolic Activation: RAT LIVER S-9, Method: PREINCUBATION
  mutagenic call: active; positive
Test System: E.COLI, Strain/Indicator: WP2 UVRA, Metabolic Activation: NONE, Method: PREINCUBATION
  mutagenic call: inactive; negative
Test System: E.COLI, Strain/Indicator: WP2 UVRA, Metabolic Activation: RAT LIVER S-9, Method: PREINCUBATION
  mutagenic call: inactive; negative

## Nc1ccc2c(c1)oc1ccccc12
[14]
  mutagenic call: active; positive
Test System: AMES SALMONELLA TYPHIMURIUM, Strain/Indicator: TA98, Metabolic Activation: S-9, PHENOBARBITAL AND 5,6-BENZOFLAVONE, Method: STANDARD PLATE
  mutagenic call: active; positive
[15]
  mutagenic call: inactive; negative
Test System: AMES SALMONELLA TYPHIMURIUM, Strain/Indicator: TA100, Metabolic Activation: S-9, PHENOBARBITAL AND 5,6-BENZOFLAVONE, Method: STANDARD PLATE
  mutagenic call: active; positive

## COCCOCCOP1(OCCOCCOC)=NP(OCCOCCOC)(OCCOCCOC)=NP(OCCOCCOC)(OCCOCCOC)=N1
[14]
  mutagenic call: inactive; negative
[16]
  mutagenic call: inactive; negative
[15]
  mutagenic call: inactive; negative
[13]
  mutagenic call: inactive; negative

## Nc1ccc(/C=C/c2ccc(N)cc2)cc1
Test System: AMES SALMONELLA TYPHIMURIUM, Strain/Indicator: TA98(1,8-DNP6), Metabolic Activation: NONE, Method: STANDARD PLATE
  mutagenic call: inactive; negative
Test System: AMES SALMONELLA TYPHIMURIUM, Strain/Indicator: TA98(1,8-DNP6), Metabolic Activation: S-9, Method: STANDARD PLATE
  mutagenic call: inactive; negative
[14]
  mutagenic call: inactive; negative
[16]
  mutagenic call: active; positive
Test System: AMES SALMONELLA TYPHIMURIUM, Strain/Indicator: TA98, Metabolic Activation: S-9, Method: STANDARD PLATE
  mutagenic call: active; positive
[15]
  mutagenic call: inactive; negative
[13]
  mutagenic call: inactive; negative
Test System: AMES SALMONELLA TYPHIMURIUM, Strain/Indicator: TA100, Metabolic Activation: S-9, Method: STANDARD PLATE
  mutagenic call: inactive; negative

## CCCCN(CC(O)c1ccc([O-])c([N+]#N)c1)N=O (stereo unspecified)
[2]
  mutagenic call: active; positive
Test System: AMES SALMONELLA TYPHIMURIUM, Strain/Indicator: TA98, Method: PREINCUBATION
  mutagenic call: active; positive
[5]
  mutagenic call: active; positive
Test System: AMES SALMONELLA TYPHIMURIUM, Strain/Indicator: TA100, Method: PREINCUBATION
  mutagenic call: active; positive

## O=C1NC(=O)c2cc([N+](=O)[O-])ccc21
[17]
  mutagenic call: inactive; negative
[18]
  mutagenic call: active; positive
[19]
  mutagenic call: inactive; negative
[1]
  mutagenic call: active; positive
[2]
  mutagenic call: active; positive
[3]
  mutagenic call: active; positive
[4]
  mutagenic call: inactive; negative
[5]
  mutagenic call: inactive; negative
[6]
  mutagenic call: inactive; negative
[7]
  mutagenic call: inactive; negative
[8]
  mutagenic call: inactive; negative
[9]
  mutagenic call: inactive; negative
[10]
  mutagenic call: active; positive
[11]
  mutagenic call: active; positive
[12]
  mutagenic call: active; positive

## Cc1ccc(N)c(C)c1
End Point: IN VITRO CHROMOSOMAL ABERRATIONS, Test System: CHL CELLS, Metabolic Activation: RAT, LIVER, S-9, SODIUM PHENOBARBITAL AND 5,6-BENZOFLAVONE
  mutagenic call: active; positive (structural and ploidy changes)
[17]
  mutagenic call: active; positive
[18]
  mutagenic call: inactive; negative
[19]
  mutagenic call: inactive; negative
[1]
  mutagenic call: active; positive
[2]
  mutagenic call: inactive; negative
[3]
  mutagenic call: active; positive
Test System: AMES SALMONELLA TYPHIMURIUM, Strain/Indicator: TA98, Metabolic Activation: S-9, Method: PREINCUBATION
  mutagenic call: inactive; negative
[4]
  mutagenic call: active; positive
Test System: AMES SALMONELLA TYPHIMURIUM, Strain/Indicator: TA100, Metabolic Activation: MOUSE, LIVER, S-9, AROCLOR 1254, Method: STANDARD PLATE
  mutagenic call: active; positive
[5]
  mutagenic call: inactive; negative
[6]
  mutagenic call: active; positive
[13]
  mutagenic call: active; positive
Test System: AMES SALMONELLA TYPHIMURIUM, Strain/Indicator: TA100, Metabolic Activation: S-9, Method: PREINCUBATION
  mutagenic call: active; positive
[7]
  mutagenic call: inactive; negative
[8]
  mutagenic call: inactive; negative
[9]
  mutagenic call: inactive; negative
[10]
  mutagenic call: inactive; negative
[12]
  mutagenic call: inactive; negative
Test System: UDS RODENT HEPATOCYTES, Strain/Indicator: THY INCORP (NON-S-PHASE), Metabolic Activation: NONE, Method: AUTORADIOGRAPHY
  mutagenic call: active; positive

## CC(C)(C)CC(C)(C)c1ccc(OCCO)cc1
Test System: MOUSE LYMPHOMA, Strain/Indicator: L5178Y (TK+/TK-), Metabolic Activation: NONE, Method: SUSPENSION/PLATE
  mutagenic call: inactive; negative

## ClC(CBr)CBr
Test System: AMES SALMONELLA TYPHIMURIUM, Strain/Indicator: TA100, Metabolic Activation: RAT, LIVER, MICROSOMES, PHENOBARBITAL, NADPH COFACTORS, Method: STANDARD PLATE
  mutagenic call: active; positive
Test System: AMES SALMONELLA TYPHIMURIUM, Strain/Indicator: TA100, Metabolic Activation: RAT, LIVER, MICROSOMES, PHENOBARBITAL, Method: STANDARD PLATE
  mutagenic call: inactive; negative
